Results: ChEMBL document CHEMBL1201862, “PubChem BioAssay data set” (2004)
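Growth conditions: 96-well plates. Treatment: test compound, 48 hours, 5 concentrations. Analysis: linear interpolation between bracketing concentrations; unreached endpoints set to highest concentration. Abbreviation: GI50, concentration required for 50% inhibition of growth.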 Calls of active or inactive are those of the source. Rule as the data show it: active = GI50 up to about 1.1 µM and inactive = higher.

Columns and labels:
Assay in all cases: growth of human tumour cells (NCI), 48 h
[1] = system: OVCAR-5
[2] = system: SK-MEL-5
[3] = system: MDA-MB-231
[4] = system: A549
[5] = system: IGROV-1
[6] = system: SK-OV-3
[7] = system: CAKI-1
[8] = system: MDA-N
[9] = system: A498
[10] = system: HL-60
[11] = system: HOP-92
[12] = system: SF-268
[13] = system: NCI-H460
[14] = system: HCT-116
[15] = system: HOP-62
[16] = system: SNB-75
[17] = system: EKVX
[18] = system: RXF 393
[19] = system: NCI-H226
[20] = system: RPMI-8226

Compound	GI50 [1]	GI50 [2]	GI50 [3]	GI50 [4]	GI50 [5]	GI50 [6]	GI50 [7]	GI50 [8]	GI50 [9]	GI50 [10]	GI50 [11]	GI50 [12]	GI50 [13]	GI50 [14]	GI50 [15]	GI50 [16]	GI50 [17]	GI50 [18]	GI50 [19]	GI50 [20]
COC(=O)C1=C(C(=O)OC)C2(/N=C(\Nc3ccccc3)c3ccccc3)N(c3ccc(OC)cc3)CC(c3ccccc3)N2O1 (stereo not given)	> 100 µM (inactive)	> 100 µM (inactive)	> 100 µM (inactive)	> 100 µM (inactive)	> 100 µM (inactive)	> 100 µM (inactive)	> 100 µM (inactive)	> 100 µM (inactive)	> 100 µM (inactive)	> 100 µM (inactive)	53.6 µM (inactive)	> 100 µM (inactive)	> 100 µM (inactive)	> 100 µM (inactive)	> 100 µM (inactive)	32.3 µM (inactive)	> 100 µM (inactive)	> 100 µM (inactive)	–	–
C/C=C/[C@H]1O[C@@](OC)([C@@H](C)[C@H](O)[C@H](C)[C@H]2OC(=O)/C(OC)=C/C(C)=C/[C@@H](C)[C@@H](O)[C@@H](C)[C@@H](O)[C@H](C)C/C(C)=C/C=C/[C@@H]2OC)CC(OC2CC(O)C(OC(N)=O)C(C)O2)[C@@H]1C (stereo not given in full)	1.82 µM (inactive)	< 0.01 µM (active)	< 0.01 µM (active)	< 0.01 µM (active)	< 0.01 µM (active)	7.48 µM (inactive)	< 0.01 µM (active)	< 0.01 µM (active)	8.99 µM (inactive)	< 0.01 µM (active)	0.103 µM (active)	< 0.01 µM (active)	< 0.01 µM (active)	< 0.01 µM (active)	< 0.01 µM (active)	–	< 0.01 µM (active)	2.39 µM (inactive)	< 0.01 µM (active)	< 0.01 µM (active)
Cc1ccc(S(=O)(=O)NN=C2C(C)(C)CC2(C)C)cc1	> 100 µM (inactive)	> 100 µM (inactive)	> 100 µM (inactive)	> 100 µM (inactive)	> 100 µM (inactive)	> 100 µM (inactive)	> 100 µM (inactive)	> 100 µM (inactive)	> 100 µM (inactive)	> 100 µM (inactive)	> 100 µM (inactive)	> 100 µM (inactive)	> 100 µM (inactive)	> 100 µM (inactive)	> 100 µM (inactive)	17.3 µM (inactive)	> 100 µM (inactive)	> 100 µM (inactive)	> 100 µM (inactive)	–
O=C(CC(O)(C(F)(F)F)C(F)(F)F)C(c1ccccc1)C(O)(C(F)(F)F)C(F)(F)F (stereo not given)	> 100 µM (inactive)	18.8 µM (inactive)	> 100 µM (inactive)	22.2 µM (inactive)	5.77 µM (inactive)	5.92 µM (inactive)	10.5 µM (inactive)	78.2 µM (inactive)	13.9 µM (inactive)	9.71 µM (inactive)	3.72 µM (inactive)	–	6.08 µM (inactive)	16.4 µM (inactive)	–	1.93 µM (inactive)	18.4 µM (inactive)	5.14 µM (inactive)	42.8 µM (inactive)	5.33 µM (inactive)
N#CC1=C(N2CCCC2)NC(=O)CC1=O	> 100 µM (inactive)	> 100 µM (inactive)	> 100 µM (inactive)	> 100 µM (inactive)	> 100 µM (inactive)	> 100 µM (inactive)	> 100 µM (inactive)	> 100 µM (inactive)	> 100 µM (inactive)	> 100 µM (inactive)	> 100 µM (inactive)	> 100 µM (inactive)	> 100 µM (inactive)	> 100 µM (inactive)	> 100 µM (inactive)	–	> 100 µM (inactive)	> 100 µM (inactive)	> 100 µM (inactive)	> 100 µM (inactive)
CC(C)=CCC/C(C)=C/C=C/C(C)=C/C=C/C(C)=C/C=C/C=C(C)/C=C/C=C(C)/C=C/[C@H]1C(C(C)(C)O)CC[C@]1(C)O (stereo not given in full)	40 µM (inactive)	15.5 µM (inactive)	25.4 µM (inactive)	–	20.2 µM (inactive)	56.2 µM (inactive)	33.5 µM (inactive)	25.1 µM (inactive)	27.1 µM (inactive)	19.3 µM (inactive)	12.7 µM (inactive)	19.5 µM (inactive)	29.8 µM (inactive)	15.7 µM (inactive)	20 µM (inactive)	–	40.6 µM (inactive)	17.3 µM (inactive)	71.1 µM (inactive)	17.7 µM (inactive)
O=[N+]([O-])c1ccc(/N=N/N2CCCC2)cc1	> 100 µM (inactive)	> 100 µM (inactive)	> 100 µM (inactive)	–	> 100 µM (inactive)	> 100 µM (inactive)	> 100 µM (inactive)	> 100 µM (inactive)	> 100 µM (inactive)	32.2 µM (inactive)	> 100 µM (inactive)	> 100 µM (inactive)	> 100 µM (inactive)	> 100 µM (inactive)	> 100 µM (inactive)	> 100 µM (inactive)	> 100 µM (inactive)	> 100 µM (inactive)	> 100 µM (inactive)	> 100 µM (inactive)
